Assay results from ChEMBL document CHEMBL3046407, “Toxicity of monoterpenes against larvae and adults of Colorado potato beetle, Leptinotarsa decemlineata Say (Coleoptera: Chrysomelidae)” (2007).

Key:
[1] = tested on: Leptinotarsa decemlineata; assay type: functional, Instar larval stage
[2] = tested on: Leptinotarsa decemlineata; test: Insecticidal activity against third-instar larval stage of Leptinotarsa decemlineata infested potato leaves assessed as mortality at 10 mg after 24 hr relative to control; assay type: functional
[3] = tested on: Leptinotarsa decemlineata; assay type: functional, Instar larval stage; remark: listed apart in the source
[4] = tested on: Leptinotarsa decemlineata; test: Insecticidal activity against third-instar larval stage of Leptinotarsa decemlineata infested potato leaves assessed as mortality at 20 mg after 24 hr relative to control; assay type: functional
[5] = tested on: Leptinotarsa decemlineata; test: Insecticidal activity against adult Leptinotarsa decemlineata infested potato leaves assessed as mortality at 10 mg after 48 hr relative to control; assay type: functional
[6] = tested on: Leptinotarsa decemlineata; assay type: functional, Instar larval stage; remark: listed apart in the source
[7] = tested on: Leptinotarsa decemlineata; test: Insecticidal activity against adult Leptinotarsa decemlineata infested potato leaves assessed as mortality at 20 mg after 96 hr relative to control; assay type: functional
[8] = tested on: Leptinotarsa decemlineata; test: Insecticidal activity against adult Leptinotarsa decemlineata infested potato leaves assessed as mortality at 20 mg after 24 hr relative to control; assay type: functional
[9] = tested on: Leptinotarsa decemlineata; test: Insecticidal activity against first-instar larval stage of Leptinotarsa decemlineata infested potato leaves assessed as mortality at 10 mg after 48 hr relative to control; assay type: functional
[10] = tested on: Leptinotarsa decemlineata; assay type: functional, Instar larval stage; remark: listed apart in the source
[11] = tested on: Leptinotarsa decemlineata; test: Insecticidal activity against adult Leptinotarsa decemlineata infested potato leaves assessed as mortality at 10 mg after 12 hr relative to control; assay type: functional
[12] = tested on: Leptinotarsa decemlineata; test: Insecticidal activity against first-instar larval stage of Leptinotarsa decemlineata infested potato leaves assessed as mortality at 10 mg after 96 hr relative to control; assay type: functional
[13] = tested on: Leptinotarsa decemlineata; test: Insecticidal activity against third-instar larval stage of Leptinotarsa decemlineata infested potato leaves assessed as mortality at 10 mg after 12 hr relative to control; assay type: functional
[14] = tested on: Leptinotarsa decemlineata; assay type: functional, Instar larval stage; remark: listed apart in the source
[15] = tested on: Leptinotarsa decemlineata; test: Insecticidal activity against second-instar larval stage of Leptinotarsa decemlineata infested potato leaves assessed as mortality at 20 mg after 12 hr relative to control; assay type: functional
[16] = tested on: Leptinotarsa decemlineata; test: Insecticidal activity against second-instar larval stage of Leptinotarsa decemlineata infested potato leaves assessed as mortality at 10 mg after 12 hr relative to control; assay type: functional
[17] = tested on: Leptinotarsa decemlineata; assay type: functional, Instar larval stage; remark: listed apart in the source
[18] = tested on: Leptinotarsa decemlineata; test: Insecticidal activity against first-instar larval stage of Leptinotarsa decemlineata infested potato leaves assessed as mortality at 20 mg after 24 hr relative to control; assay type: functional
[19] = tested on: Leptinotarsa decemlineata; test: Insecticidal activity against first-instar larval stage of Leptinotarsa decemlineata infested potato leaves assessed as mortality at 20 mg after 48 hr relative to control; assay type: functional
[20] = tested on: Leptinotarsa decemlineata; test: Insecticidal activity against first-instar larval stage of Leptinotarsa decemlineata infested potato leaves assessed as mortality at 20 mg after 12 hr relative to control; assay type: functional
[21] = tested on: Leptinotarsa decemlineata; assay type: functional, Instar larval stage; remark: listed apart in the source
[22] = tested on: Leptinotarsa decemlineata; test: Insecticidal activity against first-instar larval stage of Leptinotarsa decemlineata infested potato leaves assessed as mortality at 10 mg after 12 hr relative to control; assay type: functional
[23] = tested on: Leptinotarsa decemlineata; assay type: functional, Instar larval stage; remark: listed apart in the source
[24] = tested on: Leptinotarsa decemlineata; test: Insecticidal activity against adult Leptinotarsa decemlineata infested potato leaves assessed as mortality at 10 mg after 24 hr relative to control; assay type: functional
[25] = tested on: Leptinotarsa decemlineata; test: Insecticidal activity against first-instar larval stage of Leptinotarsa decemlineata infested potato leaves assessed as mortality at 10 mg after 24 hr relative to control; assay type: functional
[26] = tested on: Leptinotarsa decemlineata; test: Insecticidal activity against first-instar larval stage of Leptinotarsa decemlineata infested potato leaves assessed as mortality at 20 mg after 96 hr relative to control; assay type: functional
[27] = tested on: Leptinotarsa decemlineata; test: Insecticidal activity against adult Leptinotarsa decemlineata infested potato leaves assessed as mortality at 10 mg after 96 hr relative to control; assay type: functional
[28] = tested on: Leptinotarsa decemlineata; assay type: functional, Instar larval stage; remark: listed apart in the source
[29] = tested on: Leptinotarsa decemlineata; assay type: functional, Instar larval stage; remark: listed apart in the source
[30] = tested on: Leptinotarsa decemlineata; test: Insecticidal activity against adult Leptinotarsa decemlineata infested potato leaves assessed as mortality at 20 mg after 48 hr relative to control; assay type: functional
[31] = tested on: Leptinotarsa decemlineata; test: Insecticidal activity against third-instar larval stage of Leptinotarsa decemlineata infested potato leaves assessed as mortality at 20 mg after 12 hr relative to control; assay type: functional
[32] = tested on: Leptinotarsa decemlineata; test: Insecticidal activity against adult Leptinotarsa decemlineata infested potato leaves assessed as mortality at 20 mg after 12 hr relative to control; assay type: functional

Structure (SMILES) | mortality [1] | mortality [2] | mortality [3] | mortality [4] | mortality [5] | mortality [6] | mortality [7] | mortality [8] | mortality [9] | mortality [10] | mortality [11] | mortality [12] | mortality [13] | mortality [14] | mortality [15] | mortality [16] | mortality [17] | mortality [18] | mortality [19] | mortality [20] | further results
CC1(C)C2CCC1(C)C(O)C2 (stereo not given) [BORNEOL] | 23.3% | 0% | 0% | 0% | 13.3% | 0% | 66.7% | 20% | 0% | 0% | 0% | 13.3% | 0% | 20% | 0% | 0% | 0% | 0% | 6.7% | 0% | mortality [21]: 0%; mortality [22]: 0%; mortality [23]: 16.7%; mortality [24]: 0%; mortality [25]: 0%; mortality [26]: 16.7%; mortality [27]: 23.3%; mortality [28]: 0%; mortality [29]: 0%; mortality [30]: 66.7%; mortality [31]: 0%; mortality [32]: 3.3%
CC12CCC(CC1=O)C2(C)C (stereo not given) [CAMPHOR] | 86.7% | 0% | 6.7% | 30% | 36.7% | 83.3% | 93.3% | 13.3% | 23.3% | 33.3% | 0% | 76.7% | 0% | 70% | 36.7% | 13.3% | 36.7% | 53.3% | 86.7% | 30% | mortality [21]: 63.3%; mortality [22]: 0%; mortality [23]: 86.7%; mortality [24]: 0%; mortality [25]: 0%; mortality [26]: 86.7%; mortality [27]: 56.7%; mortality [28]: 6.7%; mortality [29]: 46.7%; mortality [30]: 43.3%; mortality [31]: 26.7%; mortality [32]: 6.7%
CC12CCC(C1)C(C)(C)C2=O (stereo not given) [FENCHONE] | 100% | 93.3% | 100% | 100% | 100% | 100% | 100% | 100% | 63.3% | 100% | 53.3% | 83.3% | 56.7% | 73.3% | 33.3% | 23.3% | 100% | 83.3% | 100% | 36.7% | mortality [21]: 63.3%; mortality [22]: 13.3%; mortality [23]: 100%; mortality [24]: 100%; mortality [25]: 46.7%; mortality [26]: 100%; mortality [27]: 100%; mortality [28]: 100%; mortality [29]: 50%; mortality [30]: 100%; mortality [31]: 66.7%; mortality [32]: 90%
CC12CCC(C1)C(C)(C)C2O (stereo not given) [FENCHYL ALCOHOL] | 3.3% | 23.3% | 30% | 10% | 16.7% | 3.3% | 20% | 0% | 13.3% | 20% | 3.3% | 13.3% | 10% | 13.3% | 3.3% | 3.3% | 23.3% | 3.3% | 3.3% | 3.3% | mortality [21]: 13.3%; mortality [22]: 3.3%; mortality [23]: 3.3%; mortality [24]: 16.7%; mortality [25]: 10%; mortality [26]: 3.3%; mortality [27]: 43.3%; mortality [28]: 30%; mortality [29]: 10%; mortality [30]: 6.7%; mortality [31]: 6.7%; mortality [32]: 0%
CC(C)[C@H]1CC[C@@H](C)C[C@@H]1O [ISOMENTHOL] | 0% | 0% | 0% | 0% | 30% | 0% | 26.7% | 6.7% | 6.7% | 3.3% | 0% | 10% | 0% | 0% | 0% | 0% | 6.7% | 0% | 0% | 0% | mortality [21]: 0%; mortality [22]: 3.3%; mortality [23]: 0%; mortality [24]: 20%; mortality [25]: 3.3%; mortality [26]: 0%; mortality [27]: 33.3%; mortality [28]: 0%; mortality [29]: 0%; mortality [30]: 20%; mortality [31]: 0%; mortality [32]: 6.7%
